Laboratory results as given in patent publication US10774094B2, “Crystal forms and salt forms of 7h-pyrrolo[2,3-d]pyrimidine compounds and preparation method thereof” (Wuxi Fortune Pharmaceutical Co., Ltd, priority 2016, dated 2020).

Tests used:
Assay type in all cases: physicochemical
[1] = Solubility tests of crystal form A in different solvents (manual stepwise dilution); settings: for solubility: thermodynamic from solid, atmospheric temperature
Procedure: These solubility tests were carried out by manually stepwise dilution and simultaneous observation of dissolution at atmospheric temperature.

[2] = Technical effect statement on properties of the crystal forms (no method given)
[3] = Stability tests of crystal form A in different solvents (40° C., 2 days, XRPD); settings: for Results (crystal form of the solid by XRPD): 40° C., 2 days; for Appearance (2 days): stirred at 40° C. for 2 days
Procedure: The solids in all samples were collected and dried overnight in a vacuum drying oven (25° C.).

[4] = Solid stability tests of crystal form E under high temperature, high humidity and strong light (XRPD)
Text: The vial in which the samples were placed at high temperature and high humidity was sealed with an aluminum foil, and small holes were formed in the aluminum foil to ensure that the samples were sufficiently contacted with atmospheric air; and the sample placed at strong light radiation was sealed with a threaded cap. The samples placed under different conditions were sampled and tested by XRPD on day 5 and day 10. The test results were compared with the initial test results on day 0.

## CN(c1ncnc2[nH]ccc12)[C@@H]1CCn2cc(C#N)nc2C1 [Crystal Form A of Compound 1]
[1]; 1,4-dioxane
  Solubility conclusion: Slightly soluble/very
[1]; 2-methyltetrahydrofuran
  Solubility conclusion: Slightly soluble/very
[1]; Acetone
  Solubility conclusion: Slightly soluble/very
[1]; Acetone-water (1:2)
  Solubility conclusion: Slightly soluble/very
[1]; Acetonitrile
  Solubility conclusion: Slightly soluble/very
[1]; Acetonitrile-water (1:1)
  Solubility conclusion: Slightly soluble/very
[1]; Cyclohexane
  Solubility conclusion: Slightly soluble/very
[1]; Ethanol
  Solubility conclusion: Slightly soluble/very
[1]; Ethanol-water (1:1)
  Solubility conclusion: Slightly soluble/very
[1]; Ethanol-water (3:1)
  Solubility conclusion: Slightly soluble/very
[1]; Ethyl acetate
  Solubility conclusion: Slightly soluble/very
[1]; Heptane
  Solubility conclusion: Slightly soluble/very
[1]; Isopropanol
  Solubility conclusion: Slightly soluble/very
[1]; Isopropyl acetate
  Solubility conclusion: Slightly soluble/very
[1]; Isopropyl alcohol-water (1:1)
  Solubility conclusion: Slightly soluble/very
[1]; Methanol
  Solubility conclusion: Slightly soluble/very
[1]; Methanol-water (1:1)
  Solubility conclusion: Slightly soluble/very
[1]; Methanol-water (3:1)
  Solubility conclusion: Slightly soluble/very
[1]; Methyl ethyl ketone
  Solubility conclusion: Slightly soluble/very
[1]; Methyl isobutyl ketone
  Solubility conclusion: Slightly soluble/very
[1]; Methyl tert-butyl ether
  Solubility conclusion: Slightly soluble/very
[1]; N-butanol
  Solubility conclusion: Slightly soluble/very
[1]; Tetrahydrofuran
  Solubility conclusion: Slightly soluble/very
[1]; Toluene
  Solubility conclusion: Slightly soluble/very
[1]; Water
  Solubility conclusion: Slightly soluble/very
  solubility: < 2000 µg/mL
[1]; aqueous with cosolvent or surfactant or cyclodextrin, Acetone-water (1:2)
  solubility: < 2000 µg/mL
[1]; aqueous with cosolvent or surfactant or cyclodextrin, Acetonitrile-water (1:1)
  solubility: < 2000 µg/mL
[1]; aqueous with cosolvent or surfactant or cyclodextrin, Ethanol-water (1:1)
  solubility: < 2000 µg/mL
[1]; aqueous with cosolvent or surfactant or cyclodextrin, Ethanol-water (3:1)
  solubility: < 2000 µg/mL
[1]; aqueous with cosolvent or surfactant or cyclodextrin, Isopropyl alcohol-water (1:1)
  solubility: < 2000 µg/mL
[1]; aqueous with cosolvent or surfactant or cyclodextrin, Methanol-water (1:1)
  solubility: < 2000 µg/mL
[1]; aqueous with cosolvent or surfactant or cyclodextrin, Methanol-water (3:1)
  solubility: < 2000 µg/mL
[1]; organic solvent or mixture, 1,4-dioxane
  solubility: < 2000 µg/mL
[1]; organic solvent or mixture, 2-methyltetrahydrofuran
  solubility: < 2000 µg/mL
[1]; organic solvent or mixture, Acetone
  solubility: < 2000 µg/mL
[1]; organic solvent or mixture, Acetonitrile
  solubility: < 2000 µg/mL
[1]; organic solvent or mixture, Cyclohexane
  solubility: < 2000 µg/mL
[1]; organic solvent or mixture, Ethanol
  solubility: < 2000 µg/mL
[1]; organic solvent or mixture, Ethyl acetate
  solubility: < 2000 µg/mL
[1]; organic solvent or mixture, Heptane
  solubility: < 2000 µg/mL
[1]; organic solvent or mixture, Isopropanol
  solubility: < 2000 µg/mL
[1]; organic solvent or mixture, Isopropyl acetate
  solubility: < 2000 µg/mL
[1]; organic solvent or mixture, Methanol
  solubility: < 2000 µg/mL
[1]; organic solvent or mixture, Methyl ethyl ketone
  solubility: < 2000 µg/mL
[1]; organic solvent or mixture, Methyl isobutyl ketone
  solubility: < 2000 µg/mL
[1]; organic solvent or mixture, Methyl tert-butyl ether
  solubility: < 2000 µg/mL
[1]; organic solvent or mixture, N-butanol
  solubility: < 2000 µg/mL
[1]; organic solvent or mixture, Tetrahydrofuran
  solubility: < 2000 µg/mL
[1]; organic solvent or mixture, Toluene
  solubility: < 2000 µg/mL
[2]
  hygroscopicity (in words): low hygroscopicity
  stability (in words): stable properties
  water solubility (in words): excellent water solubility
[3]; Acetone-water (1:2)
  Results (crystal form of the solid by XRPD): Crystal form A
  Appearance (2 days): Suspension
[3]; Acetone
  Results (crystal form of the solid by XRPD): Crystal form A
  Appearance (2 days): Suspension
[3]; Ethanol-water (3:1)
  Results (crystal form of the solid by XRPD): Crystal form A
  Appearance (2 days): Suspension
[3]; Ethanol
  Results (crystal form of the solid by XRPD): Crystal form A
  Appearance (2 days): Suspension
[3]; Ethyl acetate
  Results (crystal form of the solid by XRPD): Crystal form A
  Appearance (2 days): Suspension
[3]; Isopropanol
  Results (crystal form of the solid by XRPD): Crystal form A
  Appearance (2 days): Suspension
[3]; Isopropyl alcohol-water (1:1)
  Results (crystal form of the solid by XRPD): Crystal form A
  Appearance (2 days): Suspension
[3]; Methanol-water (3:1)
  Results (crystal form of the solid by XRPD): Crystal form A
  Appearance (2 days): Suspension
[3]; Methanol
  Results (crystal form of the solid by XRPD): Crystal form A
  Appearance (2 days): Suspension
[3]; Tetrahydrofuran
  Results (crystal form of the solid by XRPD): Crystal form A
  Appearance (2 days): Suspension

## CN(c1ncnc2[nH]ccc12)[C@@H]1CCn2cc(C#N)nc2C1.Cc1ccc(S(=O)(=O)O)cc1 [Crystal Form E of Compound 2]
[4]; High humidity (room temperature/relative humidity 92.5%, open), day 5
  XRPD: Crystal form E
[4]; High humidity (room temperature/relative humidity 92.5%, open), day 5 and day 10
  Appearance: White powder
[4]; High humidity (room temperature/relative humidity 92.5%, open), day 10
  XRPD: Crystal form E
[4]; High temperature (60° C., open), day 5
  XRPD: Crystal form E
[4]; High temperature (60° C., open), day 5 and day 10
  Appearance: White powder
[4]; High temperature (60° C., open), day 10
  XRPD: Crystal form E
[4]; Strong light radiation (5000 lx, close), day 5
  XRPD: Crystal form E
[4]; Strong light radiation (5000 lx, close), day 5 and day 10
  Appearance: White powder
[4]; Strong light radiation (5000 lx, close), day 10
  XRPD: Crystal form E
[4]; day 0 (initial)
  Appearance: White powder
  XRPD: Crystal form E
[2]
  hygroscopicity (in words): low hygroscopicity
  stability (in words): stable properties
  water solubility (in words): excellent water solubility

## CN(c1ncnc2[nH]ccc12)[C@@H]1CCn2cc(C#N)nc2C1.O=C(O)C(F)(F)F [crystal form F of the compound 3]
[2]
  hygroscopicity (in words): low hygroscopicity
  stability (in words): stable properties
  water solubility (in words): excellent water solubility
